Patent CN114790169A, “四氢喹啉相关二环类化合物及其应用” (Guangzhou Institute of Biomedicine and Health of CAS, priority 2016, dated 2017)
pIC50: −log10 of the molar value.

Target: T1, glucocorticoid receptor [糖皮质激素受体] (Homo sapiens, UniProt P04150)
T1 sequence (P04150 1-777): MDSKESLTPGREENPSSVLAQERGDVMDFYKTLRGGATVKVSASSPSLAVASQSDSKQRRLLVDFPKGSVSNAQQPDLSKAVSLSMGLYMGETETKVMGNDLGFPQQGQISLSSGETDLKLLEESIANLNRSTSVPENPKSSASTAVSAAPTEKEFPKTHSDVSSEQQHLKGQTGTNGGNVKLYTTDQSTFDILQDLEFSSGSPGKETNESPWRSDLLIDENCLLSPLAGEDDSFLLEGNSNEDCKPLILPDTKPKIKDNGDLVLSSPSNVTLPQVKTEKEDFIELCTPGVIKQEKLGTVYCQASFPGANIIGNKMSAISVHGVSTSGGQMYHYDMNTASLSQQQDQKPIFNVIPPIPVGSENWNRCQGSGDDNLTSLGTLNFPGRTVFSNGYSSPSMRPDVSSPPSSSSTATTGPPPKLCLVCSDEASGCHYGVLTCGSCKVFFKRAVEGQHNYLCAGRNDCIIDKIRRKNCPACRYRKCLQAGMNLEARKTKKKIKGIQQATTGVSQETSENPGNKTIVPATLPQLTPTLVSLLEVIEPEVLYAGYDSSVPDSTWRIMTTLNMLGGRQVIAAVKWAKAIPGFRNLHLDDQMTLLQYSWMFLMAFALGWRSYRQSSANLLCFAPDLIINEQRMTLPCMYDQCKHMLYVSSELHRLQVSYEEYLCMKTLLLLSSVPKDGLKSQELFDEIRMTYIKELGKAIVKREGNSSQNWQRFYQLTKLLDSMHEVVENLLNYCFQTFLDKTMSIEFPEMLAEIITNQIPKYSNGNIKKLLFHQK
Experiment: not given
Conditions: literature, in words; cited from earlier work

Molecule	action on glucocorticoid receptor
C[C@H]1[C@H](C)CC[C@]2(C(=O)O)CC[C@]3(C)C(=CC[C@@H]4[C@@]5(C)CC[C@H](O)C(C)(C)[C@@H]5CC[C@]43C)[C@H]12 [熊果酸]	对糖皮质激素受体也有作用

Target: T2, RORα (Homo sapiens, UniProt P35398)
T2 sequence (P35398 1-523): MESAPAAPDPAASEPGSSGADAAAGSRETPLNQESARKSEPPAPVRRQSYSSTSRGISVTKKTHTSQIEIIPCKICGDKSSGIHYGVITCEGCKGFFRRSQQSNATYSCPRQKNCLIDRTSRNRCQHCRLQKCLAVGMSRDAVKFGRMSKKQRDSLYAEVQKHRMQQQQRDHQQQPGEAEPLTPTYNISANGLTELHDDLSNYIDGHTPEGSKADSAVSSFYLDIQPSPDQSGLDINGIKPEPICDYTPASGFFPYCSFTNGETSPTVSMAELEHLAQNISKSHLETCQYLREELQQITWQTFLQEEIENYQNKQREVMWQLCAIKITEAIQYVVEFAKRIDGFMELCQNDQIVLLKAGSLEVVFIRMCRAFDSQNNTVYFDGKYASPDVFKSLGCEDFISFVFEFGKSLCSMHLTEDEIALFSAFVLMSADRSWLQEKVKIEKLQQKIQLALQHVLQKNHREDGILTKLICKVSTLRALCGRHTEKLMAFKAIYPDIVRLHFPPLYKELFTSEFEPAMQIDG
Experiment: not given
Conditions: literature, in words; cited from earlier work

Molecule	action on RORα
O=S(=O)(c1ccccc1)N(CC(F)(F)F)c1ccc(C(O)(C(F)(F)F)C(F)(F)F)cc1 [T1317]	可以与RORγ和RORα结合并调控它们的活性
CC(=O)Nc1nc(C)c(S(=O)(=O)Nc2ccc(C(O)(C(F)(F)F)C(F)(F)F)cc2)s1 [SR1001]	对RORγ和RORα有双重作用的反向激动剂
O=S(=O)(Nc1ccc(C(O)(C(F)(F)F)C(F)(F)F)cc1)c1cccs1 [SR3335]	RORα的选择性反向激动剂

Target: T3, nuclear receptor RORγ [核受体RORγ] (Homo sapiens, UniProt P51449)
T3 construct: 重组质粒:Gal4-RORγLBD:25ng; expressed in transfected cells; host or cells: 293T (human kidney epithelial cell line)
T3 sequence (P51449 269-508 limits assumed): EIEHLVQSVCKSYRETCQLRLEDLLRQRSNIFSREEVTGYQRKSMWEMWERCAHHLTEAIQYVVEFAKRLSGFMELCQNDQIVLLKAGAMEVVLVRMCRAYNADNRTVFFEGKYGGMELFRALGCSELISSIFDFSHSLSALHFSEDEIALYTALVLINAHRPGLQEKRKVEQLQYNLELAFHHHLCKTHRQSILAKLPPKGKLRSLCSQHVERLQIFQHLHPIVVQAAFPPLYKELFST
Experiment: Dual-luciferase reporter assay, inhibition of nuclear receptor RORγ at cell level in 293T cells (Gal4-RORγLBD)
Assay type: cell-based
Conditions: inhibitory activity against RORγ at cell level; 293T cells, 24 h incubation with compound

pIC50	Molecule
6.24	O=S(=O)(Nc1ccc2c(c1)N(S(=O)(=O)c1cccs1)CCC2)c1ccc2c(c1)OCCO2 [实施例48, N-(1-(噻吩-2-基磺酰基)-1,2,3,4-四氢喹啉-7-基)-2,3-二氢苯并[b][1,4]二氧杂环己烯-6-磺酰胺]
6.13	Cc1ccc(S(=O)(=O)Nc2ccc3c(c2)N(S(=O)(=O)c2ccc(F)cc2)CCC3)s1 [实施例5, N-(1-((4-氟苯基)磺酰基)-1,2,3,4-四氢-7-基)-5-甲基噻吩-2-磺酰胺]
6.80	COC(=O)c1ccccc1S(=O)(=O)N1CCCc2ccc(NS(=O)(=O)c3ccc(F)cc3F)cc21 [实施例31, 2-((7-(2,4-二氟苯基磺酰氨基)-3,4-二氢喹啉-1(2H)-基)磺酰基)苯甲酸甲酯]
6.03	COC(=O)c1ccc(CS(=O)(=O)Nc2ccc3c(c2)N(S(=O)(=O)c2ccc(F)cc2)CCC3)cc1 [实施例23, 4-((N-(1-((4-氟苯基)磺酰基)-1,2,3,4-四氢喹啉-7-基)氨磺酰)甲基)苯甲酸甲酯]
6.13	O=S(=O)(Nc1ccc2c(c1)N(S(=O)(=O)Cc1ccc(F)cc1)CCC2)c1ccc(F)cc1F [实施例28, 2,4-二氟-N-(1-((4-氟苄基)磺酰基)-1,2,3,4-四氢喹啉-7-基)苯磺酰胺]
6.10	O=S(=O)(Nc1ccc2c(c1)N(S(=O)(=O)c1ccc(F)cc1)CCC2)c1ccc2c(c1)OCCO2 [实施例8, N-(1-((4-氟苯基)磺酰基)-1,2,3,4-四氢喹啉-7-基)-2,3-二氢苯并[b][1,4] 二氧杂环己烯-6-磺酰胺]
6.05	N-(1-(噻吩-2-基磺酰基)-1,2,3,4-四氢喹啉-6-基)-2,3-二氢苯并[b][1,4]二氧杂环己烯 -6-磺酰胺 [实施例66]
6.03	COC(=O)c1cccc(CS(=O)(=O)N2CCCc3ccc(NS(=O)(=O)c4ccc(F)cc4F)cc32)c1 [实施例30, 3-(((7-(2,4-二氟苯基磺酰氨基)-3,4-二氢喹啉-1(2H)-基)磺酰基)甲基)苯甲酸甲酯]
6.06	COC(=O)c1ccc(S(=O)(=O)Nc2ccc3c(c2)N(S(=O)(=O)c2ccc(F)cc2)CCC3)cc1 [实施例19, 4-(N-(1-((4-氟苯基)磺酰基)-1,2,3,4-四氢喹啉-7-基)氨磺酰)苯甲酸甲酯]
6.16	O=S(=O)(Nc1ccc2c(c1)N(S(=O)(=O)c1ccc(F)cc1)CCO2)c1ccc2c(c1)OCCO2 [实施例12, N-(4-((4-氟苯基)磺酰基)-3,4-二氢-2H-苯并[b][1,4]恶嗪-6-基)-2,3-二氢苯并[b] [1,4]二氧杂环己烯-6-磺酰胺]
6.64	COC(=O)c1ccccc1S(=O)(=O)N1CCCc2ccc(NS(=O)(=O)c3c(Cl)cccc3Cl)cc21 [实施例54, 2-((7-(2,6-二氯苯基磺酰氨基)-3,4-二氢喹啉-1(2H)-基)磺酰基)苯甲酸甲酯]
6.39	COC(=O)c1ccccc1S(=O)(=O)N1CCCc2ccc(NS(=O)(=O)c3ccc(OC)cc3)cc21 [实施例55, 2-((7-((4-甲氧基苯基)磺酰氨基)-3,4-二氢喹啉-1(2H)-基)磺酰基)苯甲酸甲酯]
6.15	COC(=O)c1ccccc1S(=O)(=O)N1CCCc2ccc(NS(=O)(=O)c3ccc4c(c3)OCCO4)cc21 [实施例52, 2-((7-(2,3-二氢苯并[b][1,4]二氧杂环己烯-6-磺酰基)-3,4-二氢喹啉-1(2H) -基)磺酰基)苯甲酸甲酯]
6.10	COC(=O)c1ccccc1S(=O)(=O)N1CCCc2ccc(NS(=O)(=O)c3cccc(Cl)c3F)cc21 [实施例53, 2-((7-(3-氯-2-氟苯基磺酰氨基)-3,4-二氢喹啉-1(2H)-基)磺酰基)苯甲酸甲酯]
6.80	COC(=O)c1ccccc1S(=O)(=O)N1CCCc2ccc(NS(=O)(=O)c3cc(OC)ccc3OC)cc21 [实施例56, 2-((7-((2,5-二甲氧基苯基)磺酰氨基)-3,4-二氢喹啉-1(2H)-基) 磺酰基)苯甲酸甲酯]

Same assay, conditions: luciferase, RORγ cell level; reference drug T1317

inhibitory activity compared with reference drug	Molecule
比对照药活性更好	COC(=O)c1ccccc1S(=O)(=O)N1CCCc2ccc(NS(=O)(=O)c3ccc(F)cc3F)cc21 [实施例31, 2-((7-(2,4-二氟苯基磺酰氨基)-3,4-二氢喹啉-1(2H)-基)磺酰基)苯甲酸甲酯]
比对照药活性相当	CS(=O)(=O)c1cccc(S(=O)(=O)Nc2ccc3c(c2)N(S(=O)(=O)c2ccc(F)cc2)CCC3)c1 [实施例22, N-(1-((4-氟苯基)磺酰基)-1,2,3,4-四氢喹啉-7-基)-3-(甲基磺酰基)苯磺酰胺]
比对照药活性相当	COC(=O)c1cccc(CS(=O)(=O)Nc2ccc3c(c2)N(S(=O)(=O)c2ccc(F)cc2)CCC3)c1 [实施例24, 3-((N-(1-((4-氟苯基)磺酰基)-1,2,3,4-四氢喹啉-7-基)氨磺酰)甲基)苯甲酸甲酯]

Target: T4, RORγ (Homo sapiens, UniProt P51449)
T4 sequence (P51449 1-518): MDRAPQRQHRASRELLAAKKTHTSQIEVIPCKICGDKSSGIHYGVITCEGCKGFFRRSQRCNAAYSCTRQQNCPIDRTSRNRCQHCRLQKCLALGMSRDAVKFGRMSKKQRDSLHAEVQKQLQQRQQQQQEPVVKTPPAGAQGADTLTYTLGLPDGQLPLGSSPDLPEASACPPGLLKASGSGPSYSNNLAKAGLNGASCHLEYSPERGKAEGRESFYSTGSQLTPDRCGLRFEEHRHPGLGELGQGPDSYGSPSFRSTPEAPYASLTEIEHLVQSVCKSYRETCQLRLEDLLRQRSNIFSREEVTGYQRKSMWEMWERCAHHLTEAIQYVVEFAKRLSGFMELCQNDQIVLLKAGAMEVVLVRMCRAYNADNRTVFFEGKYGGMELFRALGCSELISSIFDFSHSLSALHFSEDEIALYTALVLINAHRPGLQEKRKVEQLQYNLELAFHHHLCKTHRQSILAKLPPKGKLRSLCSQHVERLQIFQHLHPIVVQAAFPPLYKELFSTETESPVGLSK
Experiment: not given
Conditions: literature, in words; cited from earlier work

Molecule	action on RORγ
C[C@H]1O[C@@H](O[C@H]2[C@@H](O)C[C@H](O[C@H]3[C@@H](O)C[C@H](O[C@H]4CC[C@@]5(C)[C@H](CC[C@@H]6[C@@H]5C[C@@H](O)[C@]5(C)[C@@H](C7=CC(=O)OC7)CC[C@]65O)C4)O[C@@H]3C)O[C@@H]2C)C[C@H](O)[C@@H]1O [地高辛]	可以作为RORγ的选择性调控物质

Tested on: other nuclear receptors (LXRα/β, FXR, PXR) [其他核受体 (LXRα/β,FXR,PXR)]
Experiment: not given
Conditions: literature, in words; cited from earlier work

Molecule	action on other nuclear receptors
O=S(=O)(c1ccccc1)N(CC(F)(F)F)c1ccc(C(O)(C(F)(F)F)C(F)(F)F)cc1 [T1317]	还与至少四种其他核受体 (LXRα/β,FXR,PXR)有作用

Tested on: not given
Experiment: not given
Conditions: literature, in words; cited from earlier work

Molecule	side effects
C[C@H]1O[C@@H](O[C@H]2[C@@H](O)C[C@H](O[C@H]3[C@@H](O)C[C@H](O[C@H]4CC[C@@]5(C)[C@H](CC[C@@H]6[C@@H]5C[C@@H](O)[C@]5(C)[C@@H](C7=CC(=O)OC7)CC[C@]65O)C4)O[C@@H]3C)O[C@@H]2C)C[C@H](O)[C@@H]1O [地高辛]	有很强的副作用
